According to PubChem BioAssay AID2060340 (Molecular Pharmacology Branch, DTP, NCI, 2025):

Tested on: 349418-098-R-PDC spheroids, viability, % test/control
Test: Anticancer human tumor 349418-098-R-PDC patient-derived lung adenocarcinoma cell line growth inhibition [IpAb]
Details: spheroids with HUVEC and MSC; for IC50: curve of first compound; for viability, T/C: stronger effect = lower value
Source text: Combinatorial screen of targeted agents with ipatasertib and abemaciclib in multi-cell type tumor spheroids
A high-throughput screen of multi-cell type tumor spheroids was designed to identify active combinations of targeted small molecules and ipatasertib or abemaciclib. Complex spheroids include a stromal component modeled by human endothelial cells (HUVEC) and fibroblasts modeled by human mesenchymal stem cells (MSCs). The concentration ranges selected for each drug and investigational agent were based upon clinically achievable concentrations if the clinical Cmax of the agent was known.
Compounds. The drugs and investigational agents: ipatasertib (NSC767898), abemaciclib(NSC768073), selumetinib (NSC741078), trametinib (758246), adavosertib (NSC754352), everolimus (NSC733504), sapanisertib (NSC764658), vemurafenib (NSC761431), venetoclax (NSC766270), copanlisib (NSC809693), apelisib (NSC765974), palbociblib (NSC758247), vemurafenib (NSC761431), dabrafenib (NSC764134), ravoxertinib (NSC781343), BMS-387032 (NSC767048), sotorasib (NSC818433), talazoparib (NSC767125) and afursertib (NSC778305), were obtained from the National Cancer Institute (NCI) Developmental Therapeutics Program Chemical Repository. The FDA-approved anticancer drug set is available from the NCI Developmental Therapeutics Program. […] The stock solutions were prepared in dimethyl sulfoxide (DMSO, Sigma-Aldrich, St. Louis, MO, cat. D2650) at 800-fold the tested concentration and stored at -70 degrees C prior to their use. All drugs and investigational agents were tested over a range starting from a high concentration at or near the clinical Cmax and decreasing in half-log increments. If the clinical Cmax for an agent had not been determined, the highest concentration tested was 10 microM.
NCI60 Cell Culture. NCI60 cell lines were obtained from the NCI Developmental Therapeutics Program Tumor Repository. For each lot of cells, the Repository performed Applied Biosystems AmpFLSTR Identifiler testing with PCR amplification to confirm consistency with the published Identifier STR profile for each cell line. Cells were kept in continuous culture for no more than 20 passages. The optimal seeding densities for each of the cell lines at each time point assessed were determined prior to performing the concentration response studies. Briefly, the NCI60 human tumor lines were grown as monolayers in RPMI 1640 medium supplemented with 10% FBS and 2 mmol/L L-glutamine.
An additional 9 lines were from the NCI60 cell line panel including MDA-MB-231 breast carcinoma, MDA-MB-468 breast carcinoma, MCF7 breast carcinoma, Hs578T breast carcinoma, MALME-3M melanoma, SK-MEL-2 melanoma, SK-OV-3 ovarian carcinoma, DU-145 prostate carcinoma, PC-3 prostate carcinoma, all cell lines along with major genetic alterations are listed on Table 2. Pooled donor human umbilical vein endothelial cells (HUVEC, Lonza, cat. CC-2519) and human mesenchymal stem cells (hMSC, Lonza, cat. PT-2501) were purchased from Lonza (Walkersville, MD).
PDMR cell lines were grown in complete medium (DC medium): Dulbecco's modified Eagle's medium (DMEM)/F12 supplemented with 5% fetal bovine serum (FBS), 2 mM L-glutamine, 100 U/mL penicillin and 100 µg/ml streptomycin, 0.4 µg/ml hydrocortisone, 10 ng/ml epidermal growth factor (EGF) recombinant human protein, 24 µg/mL adenine, and 0.1 mg/mL primocin. During culture from frozen stock vials, PDMR cells were cultured in the same medium containing 10 µM Y-27632 (see Table 3). The PDCs were cultured in complete DMEM/F12 media without 10 microM Y-27632 dihydrochloride for at least two passages prior to the screen. The pooled donor HUVEC and hMSC were cultured in endothelial cell growth medium 2 (PromoCell, Heidelberg, Germany, cat. C-22011) and mesenchymal stem cell growth medium 2 (PromoCell, cat. C-28009), respectively. For all experiments, HUVEC and hMSC were used at passages </=5.
[…]
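Further: spheroids exposed to compounds for 7 days.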

Q: Which results are given for `Cn1cnc2c(F)c(Nc3ccc(Br)cc3Cl)c(C(=O)NOCCO)cc21` + CC(C)NCC(C(=O)N1CCN(c2ncnc3c2C(C)CC3O)CC1)c1ccc(Cl)cc1?
A: IC50 (second compound 0.1 µM): < 9.49 nM; IC50 (second compound 0.316 µM): < 9.49 nM; IC50 (second compound 1 µM): < 9.49 nM; IC50 (second compound 3.16 µM): < 9.49 nM; IC50 (second compound 10 µM): < 9.49 nM; viability, T/C (second compound 0.1 µM, first compound 0.00949 µM): 46.7%; viability, T/C (second compound 0.1 µM, first compound 0.03 µM): 38.4%; viability, T/C (second compound 0.1 µM, first compound 0.0949 µM): 41.8%; viability, T/C (second compound 0.1 µM, first compound 0.3 µM): 33.6%; viability, T/C (second compound 0.1 µM, first compound 0.949 µM): 18.8%; viability, T/C (second compound 0.1 µM, first compound 3 µM): 8.1%; viability, T/C (second compound 0.316 µM, first compound 0.00949 µM): 25.7%; viability, T/C (second compound 0.316 µM, first compound 0.03 µM): 24.6%; viability, T/C (second compound 0.316 µM, first compound 0.0949 µM): 21.4%; viability, T/C (second compound 0.316 µM, first compound 0.3 µM): 18.8%; viability, T/C (second compound 0.316 µM, first compound 0.949 µM): 10.2%; viability, T/C (second compound 0.316 µM, first compound 3 µM): 7.06%; viability, T/C (second compound 1 µM, first compound 0.00949 µM): 12.5%; viability, T/C (second compound 1 µM, first compound 0.03 µM): 10.5%; viability, T/C (second compound 1 µM, first compound 0.0949 µM): 10.3%; viability, T/C (second compound 1 µM, first compound 0.3 µM): 7.91%; viability, T/C (second compound 1 µM, first compound 0.949 µM): 6.83%; viability, T/C (second compound 1 µM, first compound 3 µM): 5.21%; viability, T/C (second compound 3.16 µM, first compound 0.00949 µM): 7.25%; viability, T/C (second compound 3.16 µM, first compound 0.03 µM): 6.51%; viability, T/C (second compound 3.16 µM, first compound 0.0949 µM): 5.52%; viability, T/C (second compound 3.16 µM, first compound 0.3 µM): 5.93%; viability, T/C (second compound 3.16 µM, first compound 0.949 µM): 4.94%; viability, T/C (second compound 3.16 µM, first compound 3 µM): 3.63%; viability, T/C (second compound 10 µM, first compound 0.00949 µM): 5.59%; viability, T/C (second compound 10 µM, first compound 0.03 µM): 5.09%; viability, T/C (second compound 10 µM, first compound 0.0949 µM): 4.7%; viability, T/C (second compound 10 µM, first compound 0.3 µM): 3.85%; viability, T/C (second compound 10 µM, first compound 0.949 µM): 3.8%; viability, T/C (second compound 10 µM, first compound 3 µM): 3.14%

Q: Which results are given for `Cn1ncc(Cl)c1-c1cc(C(=O)NC(CN)Cc2cccc(F)c2)sc1Cl` (stereo not given) + CC(C)NCC(C(=O)N1CCN(c2ncnc3c2C(C)CC3O)CC1)c1ccc(Cl)cc1?
A: IC50 (second compound 0.1 µM): 90.8 nM; IC50 (second compound 0.316 µM): < 31.6 nM; IC50 (second compound 1 µM): < 31.6 nM; IC50 (second compound 3.16 µM): < 31.6 nM; IC50 (second compound 10 µM): < 31.6 nM; viability, T/C (second compound 0.1 µM, first compound 0.0316 µM): 79.5%; viability, T/C (second compound 0.1 µM, first compound 0.1 µM): 45.1%; viability, T/C (second compound 0.1 µM, first compound 0.316 µM): 29.4%; viability, T/C (second compound 0.1 µM, first compound 1 µM): 12.3%; viability, T/C (second compound 0.1 µM, first compound 3.16 µM): 6.88%; viability, T/C (second compound 0.1 µM, first compound 10 µM): 0.08%; viability, T/C (second compound 0.316 µM, first compound 0.0316 µM): 49.7%; viability, T/C (second compound 0.316 µM, first compound 0.1 µM): 31.8%; viability, T/C (second compound 0.316 µM, first compound 0.316 µM): 25.3%; viability, T/C (second compound 0.316 µM, first compound 1 µM): 12.1%; viability, T/C (second compound 0.316 µM, first compound 3.16 µM): 7.48%; viability, T/C (second compound 0.316 µM, first compound 10 µM): 0.08%; viability, T/C (second compound 1 µM, first compound 0.0316 µM): 23.2%; viability, T/C (second compound 1 µM, first compound 0.1 µM): 22.2%; viability, T/C (second compound 1 µM, first compound 0.316 µM): 15.9%; viability, T/C (second compound 1 µM, first compound 1 µM): 10.1%; viability, T/C (second compound 1 µM, first compound 3.16 µM): 6.54%; viability, T/C (second compound 1 µM, first compound 10 µM): 0.08%; viability, T/C (second compound 3.16 µM, first compound 0.0316 µM): 15.3%; viability, T/C (second compound 3.16 µM, first compound 0.1 µM): 12.2%; viability, T/C (second compound 3.16 µM, first compound 0.316 µM): 10.8%; viability, T/C (second compound 3.16 µM, first compound 1 µM): 8.53%; viability, T/C (second compound 3.16 µM, first compound 3.16 µM): 6.62%; viability, T/C (second compound 3.16 µM, first compound 10 µM): 0.19%; viability, T/C (second compound 10 µM, first compound 0.0316 µM): 7.77%; viability, T/C (second compound 10 µM, first compound 0.1 µM): 8.14%; viability, T/C (second compound 10 µM, first compound 0.316 µM): 7.56%; viability, T/C (second compound 10 µM, first compound 1 µM): 6.63%; viability, T/C (second compound 10 µM, first compound 3.16 µM): 5.87%; viability, T/C (second compound 10 µM, first compound 10 µM): 0.18%
